Measured values reported in patent publication US20140045908A1, “HSP90 INHIBITORY COMPOUNDS IN TREATING JAK/STAT SIGNALING-MEDIATED CANCERS” (SYNTA PHARMACEUTICALS CORP., priority 2011, published 2014).

What was measured:
Type in all cases: cell-based, human
[1] = test system: JAK2/STAT3 signaling in HCC827 cells; experiment: Western blot of constitutive and IL-6 induced STAT3 activity in HCC827 cells
Experimental: HCC827 lung cancer cells were treated with increasing concentrations of ganetespib or P6 for 24 h followed by a 15 min stimulation with or without 50 ng/ml human recombinant IL-6. The levels of JAK2, total and phospho-STAT3, and PIM2 were analyzed by western blot. GAPDH is included as a loading control.
(§1) Cells were disrupted in lysis buffer (CST) and solubilized in 2% SDS. Xenograft tumors (average volume of 100-200 mm3) were excised, cut in half, and flash frozen in liquid nitrogen. Each tumor fragment was lysed in 0.5 mL of lysis buffer using a FastPrep-24 homogenizer and Lysing Matrix A (MP Biomedicals, Solon, Ohio, USA) and lysates clarified by centrifugation. Equal amounts of proteins were resolved by SDS-PAGE and immunoblotted with indicated antibodies. The antigen-antibody complex was visualized and quantitated using an Odyssey system (LI-COR, Lincoln, Nebr., USA).

HEL92.1.7 cells [2] = experiment: Flow cytometry cell cycle analysis
Experimental: HEL92.1.7 cells were plated at 0.5×10^6 cells/mL and treated as indicated. Cells were harvested and stained with propidium iodide using the BD Cycle TEST PLUS Reagent Kit (BD Biosciences, San Jose, Calif., USA) according to the manufacturer's instructions. Twenty thousand cells were analyzed for their DNA content using a FACS Caliber cytometer (BD Biosciences).

[3] = test system: JAK2 dependent signaling in HEL92.1.7 cells; experiment: Western blot of JAK/STAT signaling in HEL92.1.7 cells; conditions: 250 nM ganetespib or 1000 nM P6
Experimental: FIG. 2 compares the more durable ganetespib durable inhibition of JAK/STAT signaling to P6. HEL92.1.7 cells were cultured in the presence of 250 nM Ganetespib or 1000 nM P6 and harvested at the indicated time points. The levels of JAK2, phosphorylated and total STAT3 and STAT5, phospho-AKT, phospho-ERK and GAPDH were determined by western blot.
as §1

HEL92.1.7 cells [4] = experiment: Cell viability assay (AlamarBlue, 72 h)
Experimental: All cell lines were obtained from the ATCC (Rockville, Md., USA), with the exception of SET-2 cells which were purchased from the German Collection of Microorganisms and Cell Cultures (DSMZ, Germany). Cells were maintained and cultured according to standard techniques at 37° C. in 5% (v/v) CO2 using culture medium recommended by the supplier.
Cells were grown in 96-well plates based on optimal growth rates determined empirically for each line. Twenty-four hours after plating, cells were dosed with the indicated compound or DMSO (0.3%) for 72 h. AlamarBlue (Invitrogen, Carlsbad, Calif., USA) was added (10% v/v) to the cells, and the plates were incubated for 3 h and subjected to fluorescence detection (Ex=545 nm, Em=600 nm) in a SpectraMax Plus 384 microplate reader (Molecular Devices, Sunnyvale, Calif., USA). Data are normalized to percent of control, with IC50 values based on a four-parameter logistic dose response curve (model 205) using XLfit version 5.1 from IDBS (Guildford, U.K.).

[5] = test system: JAK/STAT target and cell cycle gene expression in HEL92.1.7 cells; experiment: RNA expression profiling (RT-PCR, Affymetrix) in HEL92.1.7 cells; conditions: 4 hour P6 (1000 nM), 24 hour ganetespib (250 nM)
Experimental: HEL92.1.7 cells were treated with DMSO, P6 (100 or 1000 nM) or ganetespib (25 or 250 nM) for 4 h or 24 h, and total RNA extracted using Trizol (Invitrogen). RNA was purified with the RNeasy kit (Qiagen, Hilden, Germany) and converted to cDNA via an iScript kit (BioRad, Hercules, Calif., USA). Oligonucleotide primers were purchased from SABiosciences (Frederick, Md., USA). PCR was done with iQ SYBR Green Supermix (Bio-Rad), and levels of the tested genes were normalized to HPRT expression using the comparative Ct method.
Biotinylated aRNA was generated by in vitro transcription using Affymetrix GeneChip Expression IVT labeling kit (Affymetrix, Santa Clara, Calif., USA). Fifteen micrograms of labeled aRNA was fragmented and hybridized to Affymetrix GeneChip Human Genome U133 Plus 2 arrays and scanned using a GeneChip Scanner (Affymetrix). Array data were analyzed with the Affymetrix Expression Console Software utilizing the MASS algorithm. In order to generate a threshold for identifying probe sets that have large differences between 1000 nM P6 (4 h) and 250 nM ganetespib (24 h) arrays and their controls in the absence of treatment replicates, data from four control arrays (DMSO only; two at 4 h, and two at 24 h) were used to create an expression level dependent fold-difference envelope that reflects the increasing measurement variability as expression level decreases. This envelope, used in lieu of a fixed fold-difference criteria, was formed by identifying the xth percentile expression-level difference (where x was large, typically 99.9%) at each mean expression level bin. To achieve this, data were used from the six possible comparisons from the four DMSO-only arrays. The resulting, smoothed threshold fold-difference envelope was then applied to the two compound-treated/control array pairs to identify those probe-sets that have large expression level differences between treatment and control. For hierarchical analysis, genes with greater than two fold changes in expression with 250 nM ganetespib were clustered using established algorithms in Cluster (49) and a subset visualized by TreeView.

[6] = test system: Cdk1, phospho-Chk2, cyclins in HEL92.1.7 cells; experiment: Western blot of cell cycle proteins in HEL92.1.7 cells; conditions: ganetespib 250 nM or P6 1000 nM, 24-48 h
Experimental: Cells were harvested at the indicated time points and the levels of total and phospho-Cdk1, phospho-Chk2 and GAPDH analyzed by western blot.
FIG. 12 illustrates the effects of ganetespib on JAK/STAT and cell cycle protein expression. HEL92.1.7 cells were treated with 100 nM ganetespib and subject to western blot to determine the levels of Cdk1, cyclin B1, cyclin A1, JAK2, total and phospho-STAT3, and GAPDH at hourly intervals over an 11 h time course.
as §1

[7] = test system: JAK/STAT signaling in SET-2 cells; experiment: Western blot of JAK/STAT signaling in SET-2 cells; conditions: 24 h
Experimental: SET-2 cells were dosed with the indicated concentrations of ganetespib or 17-AAG for 24 h and analyzed to determine JAK/STAT protein and target levels using the antibodies indicated.
as §1

[8] = 24 h, absence of external ligand

CC(C)(C)c1nc2c3cc[nH]c(=O)c3c3cc(F)ccc3c2[nH]1 [P6, reference compound]
JAK2 expression [1, 8]: did not influence total JAK2 protein levels
constitutive STAT3 activity [1, 8]: downregulated constitutive STAT3 activity
JAK/STAT signaling stimulated by exogenous IL-6 ([1]; 24 h then 15 min 50 ng/ml IL-6): blocked JAK/STAT signaling stimulation
cell cycle distribution (HEL92.1.7 cells [2]): accumulation in G1 phase only, without the loss of S phase or G2/M arrest
JAK2 dependent signaling (phospho-STAT3, phospho-STAT5, ERK signaling) [3]: blocked JAK2 dependent signaling
fold less potency than ganetespib, loss of cellular viability (HEL92.1.7 cells [4]): 30 fold
IC50 (HEL92.1.7 cells [4]; 72 h, Alamar blue, read-out: IC50, loss of cellular viability): 614 nM
expression of JAK/STAT target genes (SOCS and PIM family members) [5]: downregulated
Cdk1 protein expression [6]: no effect on Cdk1 expression

C=CCNC1=C2C[C@@H](C)C[C@H](OC)[C@H](O)[C@@H](C)/C=C(\C)[C@H](OC(N)=O)[C@@H](OC)/C=C\C=C(/C)C(=O)NC(=CC1=O)C2=O [17-AAG, reference compound]
fold less potent than ganetespib, effects on JAK/STAT signaling [7]: 200 fold
